{"source": "patent US20150202212A1", "about": "“METHODS FOR IDENTIFYING AGENTS FOR TREATING SMOOTH MUSCLE DISORDERS AND COMPOSITIONS THEREOF” (University of Massachusetts Medical School, priority 2012, published 2015)", "key": {"[1]": {"system": "isolated smooth muscle cells from mouse internal anal sphincter", "experiment": "[Ca2+]i in isolated smooth muscle cells from mouse internal anal sphincter", "format": "cell-based", "details": "CDCA 100 μM; chloroquine 1 mM; denatonium 1 mM", "source_text": "Fluorescence images using fluo-3 as a calcium indicator were obtained using a custom-built wide-field digital imaging system. The camera was interfaced to a custom made inverted microscope, and the cells were imaged using either a 20× Nikon 1.3 NA for global [Ca^2+] measurement or a 60× Nikon 1.4 NA oil for Ca^2+ spark measurement. The 488 nm line of an Argon Ion laser provided fluorescence excitation, with a shutter to control exposure duration, and emission of the Ca^2+ indicator was monitored at wavelengths >500 nm. The images were acquired at the speed of either 1 Hz for global [Ca^2+] measurement or 50 Hz for Ca^2+ spark measurement. Subsequent image processing and analysis was performed off line using a custom-designed software package, running on a Linux/PC workstation. [Ca^2+]i was represented as ΔF/F0*100 with F calculated by integrating fluo-3 over entire cells for global [Ca^2+], or just the value at the brightest pixel (i.e., epicenter pixel) for Ca^2+ sparks."}, "L-type VDCCs": {"system": "L-type VDCCs", "details": "chloroquine 1 mM; for inhibition of L-type Ca2+ channel currents: Ba2+ as charge carrier"}, "mouse airway strips": {"system": "mouse airway strips", "details": "all at 1 mM; [Ca2+]i clamped; α-toxin permeabilized"}, "[2]": {"system": "human airway smooth muscle", "experiment": "Measurement of cell shortening in human ASM cells", "format": "cell-based", "details": "chloroquine after Mch", "procedure": "Human lung tissue was obtained (with informed consent) from patients undergoing surgery (lobectomy) for lung cancer at the Department of Surgery and the Department of Pathology at the Univ. of Massachusetts Memorial Med Ctr (Worcester, Mass.). The tumors were identified as nonsmall cell carcinoma (adenocarcinoma, squamous cell carcinoma). Intrapulmonary airways were dissected out and cleaned free of the connective tissues. These airways were either cut into the rings ([…]) for force measurements the same as for mouse airway tissues, or digested with the same enzymes, dissociation medium and isolation procedure as for single mouse ASM cells.\nMyocytes were placed into a recording chamber superfused with the bath solution for patch clamp experiments at room temperature. Cells loaded with Fluo-3 were imaged using a custom-built wide-field digital imaging system and their lengths were determined using custom software to manually trace down the center of the cell."}, "mouse urethra": {"system": "mouse urethra", "experiment": "Mouse urethral contraction induced by contractile agonists", "details": "pretreatment; Chloro 1 mM; CDCA 100 μM", "source_text": "[…] were pretreated with bitter tastants, and then stimulated with contractile agonists. Contractile agonists alone were used as the control."}, "Mouse ASM cells": {"system": "Mouse ASM cells", "experiment": "Measurement of Ca2+ sparks / local Ca2+ events in mouse ASM cells"}}, "note": "Like-named read-outs stand apart in the source and are kept apart here."}
{"compound": "CCN(CC)CCCC(C)Nc1ccnc2cc(Cl)ccc12", "note": "(centres unmarked) [chloroquine]", "values": [{"measurement": "effect on the increase in [Ca2+]i induced by 60 mM KCl", "setting": "[1]", "result": "fully reversed"}, {"measurement": "time to full inhibition of L-type Ca2+ channel currents", "setting": "L-type VDCCs", "result": "≤ 2", "unit": "min"}, {"measurement": "inhibition of L-type Ca2+ channel currents", "setting": "L-type VDCCs", "result": "fully inhibited"}, {"measurement": "inhibition of L-type Ca2+ channel currents", "setting": "L-type VDCCs; listed as Chloro", "result": "blocked"}, {"measurement": "relaxation of ASM at fixed [Ca2+]i", "setting": "mouse airway strips", "result": "failed to relax"}, {"measurement": "cell length, % of the control length", "setting": "[2]", "result": "94±5", "unit": "%"}, {"measurement": "effect on 60 mM KCl-induced contraction", "setting": "mouse urethra", "result": "blocked"}, {"measurement": "effect on alpha1-agonist phenylephrine-induced contraction", "setting": "mouse urethra", "result": "inhibited"}, {"measurement": "Ca2+ spark frequency", "setting": "Mouse ASM cells; chloroquine 10 μM for 2 mins, 13 cells without global rise, control 2.13±0.24", "result": "1.62±0.21", "unit": "Hz"}, {"measurement": "Ca2+ spark amplitude (ΔF/F0 at the brightest location)", "setting": "Mouse ASM cells; chloroquine 10 μM for 2 mins, n=13, control 20.6±1.69", "result": "18.1±1.3"}, {"measurement": "local Ca2+ events (Ca2+ puffs or sparks)", "setting": "Mouse ASM cells; chloroquine 10 μM, cells pretreated with 100 μM ryanodine, 14 cells", "result": "no detectable local Ca^2+ events"}]}
